Values joined by “and” are separate entries in the source; they are usually repeats but may differ in a detail not shown here. Equal values may be shown once.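 How tested: cells in 96-well plates exposed to compound for 48 hours at five concentrations. The concentration for 50% growth inhibition is given as GI50. At the TGI there is no net growth.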
How the values were obtained:
Experiment in all cases: NCI anticancer screen, dose series, 48 h
[1] = system: U251 CNS
[2] = system: HOP-62 NSCLC
[3] = system: PC-3 prostate
[4] = system: SK-MEL-5 melanoma
[5] = system: 786-0 renal
[6] = system: NCI-H460 lung
[7] = system: HL-60(TB) leukemia
[8] = system: KM12 colon
[9] = system: DU-145 prostate
[10] = system: MDA-MB-435

Compound | GI50 [1] [µM] | TGI [1] [µM] | GI50 [2] [µM] | TGI [2] [µM] | GI50 [3] [µM] | TGI [3] | GI50 [4] [µM] | TGI [4] [µM] | GI50 [5] | TGI [5] | GI50 [6] [µM] | TGI [6] | GI50 [7] [µM] | TGI [7] [µM] | GI50 [8] [µM] | TGI [8] | GI50 [9] [µM] | TGI [9] | GI50 [10] [µM] | TGI [10]
OCc1ccc(-c2csc(-c3ccc(CO)o3)c2)o1 | 29.7 | > 100 | 27.1 | > 100 | 33.4 | > 100 µM | 17.5 | 41.5 | 69.5 µM | > 100 µM | 9.75 | > 100 µM | 22.9 | > 100 | 39.1 | > 100 µM | 37.7 | > 100 µM | 24.1 | > 100 µM
CCn1c(-c2nonc2N)nc2c(C#CC(C)(C)O)ncc(OC3CCNCC3)c21 | 3.74 | > 25 | > 16.4 | > 25 | 7.58 | > 25 µM | > 20.1 | > 25 | 6.79 µM | > 25 µM | 6.86 | > 25 µM | 8.38 | 19 | 4.52 | > 25 µM | 10.4 | > 25 µM | 13.6 | > 25 µM
O=C(CCCn1c2c(sc3ccccc32)c(=O)n2nnc(-c3ccccc3)c12)NCCc1cnc[nH]1 | 0.128 | 1.75 | 1.31 | 2.87 | 0.0603 | 2.21 µM | 1.84 | 11.4 | 0.594 µM | 1.79 µM | 1.7 | 3.11 µM | 0.0724 | 3.21 | 0.593 | 3.19 µM | 0.833 | 2.2 µM | 0.345 | 1.87 µM
COc1ccc(-c2cc(/C=C3\C(=O)Nc4cc(Cl)ccc43)[nH]n2)cc1 | 3.46 | 25.8 | 2.75 | 85.9 | 2.75 | > 100 µM | 1.9 | 8.32 | 9.71 µM | > 100 µM | 3.43 | 23.1 µM | 2.26 | 6.33 | 3.46 | 56.1 µM | 3.52 | 21.4 µM | 0.416 | 2.11 µM
C/C(CCC(=O)O)=N/Nc1ccc([N+](=O)[O-])cc1 | > 100 | > 100 | > 100 | > 100 | 11.5 | > 100 µM | 10.1 | > 100 | 4.34 µM | > 100 µM | 3.12 | > 100 µM | 1.51 | > 100 | 0.839 | > 100 µM | > 100 | > 100 µM | 4.37 | > 100 µM
CN(C)C1CCN(Cc2ccc(NC(=O)c3cncc(C#Cc4cnc(N)c5ncccc45)c3)cc2C(F)(F)F)CC1 | 1.03 | 2.22 | 9.34 | 26.4 | 7.42 | 15.5 µM | 5.51 | 12.9 | 1.01 µM | 1.93 µM | 1.12 | 2.5 µM | 9.8 | 24.4 | 0.236 | 6.88 µM | 0.904 | 1.72 µM | 0.922 | 1.83 µM
O=C1C(=c2ccc(=C3C(=O)c4ccc([N+](=O)[O-])cc4[N+]3=O)cc2)N([O-])c2cc([N+](=O)[O-])ccc21 | > 100 | > 100 | – | > 100 | – | – | > 100 | > 100 | – | > 100 µM | > 100 | > 100 µM | > 100 | > 100 | > 100 | > 100 µM | – | – | – | –
CN1CC=C(c2cc(NC(=O)Nc3ccc(Oc4ccnc(NC(=O)C5CC5)c4)c(F)c3)cc(C(F)(F)F)c2)CC1 | 0.208 | 0.824 | 0.194 | 1.12 | 0.242 | 1.25 µM | 0.853 | 1.59 | 0.232 µM | 0.908 µM | 0.194 | 0.66 µM | 0.183 | 0.704 | 0.0332 | 0.68 µM | 0.212 | 1.62 µM | 0.429 | 1.17 µM
NC1N=Nc2ccccc21 (stereo not drawn) | – | > 100 | – | > 100 | – | – | – | – | – | > 100 µM | – | > 100 µM | – | > 100 | – | > 100 µM | – | – | – | –
COc1cc2c(c(O)c1Cl)C(=O)c1c(O)cc(C[C@H](C)O)cc1[C@H]2[C@H]1c2cc(C[C@H](C)O)cc(O)c2C(=O)c2c1cc(OC)c(Cl)c2O | – | – | – | – | – | 75 µM and > 100 µM | – | – | 3.21 µM and 30.3 µM | 75 µM and > 100 µM | – | 17.7 µM and 52.1 µM | – | – | – | 75 µM and > 100 µM | – | 75 µM and > 100 µM | – | 16 µM and 98.3 µM
COc1cccc(C=O)c1C(=O)c1cc(O)ccc1O | – | > 100 | – | > 100 | – | – | – | > 100 | – | > 100 µM | – | > 100 µM | – | > 100 | – | > 100 µM | – | – | – | –
C/C(CCn1[nH]c(=O)ccc1=O)=N\NC(=O)C(N)=O | – | > 100 | – | > 100 | – | – | – | > 100 | – | > 100 µM | – | > 100 µM | – | > 100 | – | > 100 µM | – | – | – | –
O=Cc1cccc2ccc3ccccc3c12 | – | 58.7 | – | 52.4 | – | 55.5 µM | – | 39.6 | – | 53.5 µM | – | 57.8 µM | – | – | – | 25.4 µM | – | > 100 µM | – | 49.6 µM
O=C(CCC(=O)Nc1ccc(Cl)c(Cl)c1)CC(=O)c1ccc2ccccc2c1 | – | > 100 | – | > 100 | – | – | – | > 100 | – | > 100 µM | – | > 100 µM | – | > 100 | – | > 100 µM | – | – | – | –
O=C(CN1CCN(Cc2ccccc2Cl)CC1)NC1CC(=O)c2c(Br)sc(Br)c21 (stereo not drawn) | 19.7 | 35.3 | – | – | 16.1 | 34.6 µM | 20.3 | 38.7 | 19.4 µM | 40.4 µM | 18.3 | 35.2 µM | 23.3 | 57.4 | 20.9 | 40.6 µM | 18.8 | 33.6 µM | 21.5 | 52.5 µM
